Earlier results, collected in article PMC3606899 (Journal of molecular medicine (Berlin, Germany), 2012).

Target: PHD2 (Homo sapiens, UniProt Q9GZT9)
Test: PHD inhibitor screen, IC50
Format: biochemical

PHD2, sequence (Q9GZT9 2-426): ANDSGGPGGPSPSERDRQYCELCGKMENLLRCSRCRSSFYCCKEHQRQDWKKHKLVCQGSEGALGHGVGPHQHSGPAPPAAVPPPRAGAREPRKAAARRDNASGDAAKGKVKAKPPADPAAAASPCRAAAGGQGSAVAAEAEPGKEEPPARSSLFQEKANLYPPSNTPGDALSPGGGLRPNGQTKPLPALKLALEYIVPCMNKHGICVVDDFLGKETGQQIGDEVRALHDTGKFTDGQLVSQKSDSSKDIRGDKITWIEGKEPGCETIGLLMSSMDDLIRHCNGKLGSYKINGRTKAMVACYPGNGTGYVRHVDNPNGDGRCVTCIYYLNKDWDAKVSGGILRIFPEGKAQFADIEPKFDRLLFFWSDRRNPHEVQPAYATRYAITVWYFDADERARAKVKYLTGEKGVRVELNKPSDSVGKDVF

IC50: 14 µM
Substance: AKB-4924
